Assay results published in patent US20140094424A1, “MICROBICIDAL COMPOSITIONS AND METHODS OF PRODUCTION USE THEREOF” (priority 2011, published 2014).

How the values were obtained:
[1] = system: Pseudomonas putida (K); assay: MBC (minimum bactericidal concentration) test in Wash NEXT reagent; assay type: cell-based
Experimental: (§1) The stock organisms were thawed and subbed prior to beginning the MBC test. Molds were subbed to SDA plates one week before, and the bacteria were subbed to TAT agar plates 24 hours prior to the start of the test. All plates were incubated at 32 degrees C.
(§2) Each bacterial organism was inoculated into 40 ml sterile saline in a centrifuge tube to create a density of MacFarland #1. Two serial dilutions of 1:100 were then made, resulting in 10^−2 and 10^−4 concentrations. Each dilution was vortexed before it was sampled, and sterile Eppendorf pipette tips were used to make each transfer. The 10^−4 dilution was spiral plated to yield the initial inoculum concentration.
(§3) MBC trays were set up with the prepared test reagent. Using a Matrix pipettor, 100 μl aliquots of reagent were distributed into the wells, diluting the amount of preservative from 100% to 10% increments, using unpreserved reagent as the diluent. In one row, 100% non-preserved reagent acted as a positive control and served as a benchmark for a full mat of growth. In well #12H, 100 μl unpreserved reagent was pipetted, and this well was not inoculated with organisms, as it served as the negative control. Once all of the trays were prepared, the prepared bacteria/mold suspensions were poured into the MBC inoculating trays. These were placed onto the reagent trays, and 0.01 ml inoculum was introduced into the 100 μl of reagent in each well.
(§4) This was done by dipping a sterile cotton swab into each well, and absorbing all of the liquid in the well. The swab was rolled onto a TAT agar plate ensuring that the entire swab touches the agar. Plates ware incubated at 32 degrees C. for 48 hours to 7 days, depending on the organism. Observations for growth were performed by a scoring matrix using + for a full mat, +/− for some growth, a numerical value for an actual colony count, and—for no growth.
(§5) Below are tables that contain the data obtained in Example 1. The MBC test is scored by (+) indicating a full grown mat of organisms, equivalent to the organisms in the unpreserved reagent. (+/−) indicates there is some kill evident disturbing that mat or bringing the quantities down to an almost countable level. An actual number is the actual number of colonies growing at that concentration of preservative. (−) indicates no growth found. The MBC trays were stored at room temperature for the entire test.
(§6) The materials and methods and analysis of the MBC test were the same as in Example 1.

[2] = system: Gram positive rods (S); assay: as above; assay type: cell-based
Experimental: as §1, §2, §3, §4, §5, §6

[N-]=[N+]=[N-] [Sodium Azide, sodium azide]
MBC test growth score ([1]; 10% preservative, 8 hour): + | MBC test growth score ([1]; 10% preservative, 24 hour): + | MBC test growth score ([1]; 10% preservative, 48 hour): + | MBC test growth score ([1]; 10% preservative, 72 hour): + | MBC test growth score ([1]; 20% preservative, 8 hour): + | MBC test growth score ([1]; 20% preservative, 24 hour): + | MBC test growth score ([1]; 20% preservative, 48 hour): + | MBC test growth score ([1]; 20% preservative, 72 hour): + | MBC test growth score ([1]; 30% preservative, 8 hour): + | MBC test growth score ([1]; 30% preservative, 24 hour): + | MBC test growth score ([1]; 30% preservative, 48 hour): + | MBC test growth score ([1]; 30% preservative, 72 hour): + | MBC test growth score ([1]; 40% preservative, 8 hour): + | MBC test growth score ([1]; 40% preservative, 24 hour): + | MBC test growth score ([1]; 40% preservative, 48 hour): + | MBC test growth score ([1]; 40% preservative, 72 hour): + | MBC test growth score ([1]; 50% preservative, 8 hour): + | MBC test growth score ([1]; 50% preservative, 24 hour): + | MBC test growth score ([1]; 50% preservative, 48 hour): + | MBC test growth score ([1]; 50% preservative, 72 hour): + | MBC test growth score ([1]; 60% preservative, 8 hour): + | MBC test growth score ([1]; 60% preservative, 24 hour): + | MBC test growth score ([1]; 60% preservative, 48 hour): + | MBC test growth score ([1]; 60% preservative, 72 hour): + | MBC test growth score ([1]; 70% preservative, 8 hour): + | MBC test growth score ([1]; 70% preservative, 24 hour): + | MBC test growth score ([1]; 70% preservative, 48 hour): + | MBC test growth score ([1]; 70% preservative, 72 hour): + | MBC test growth score ([1]; 80% preservative, 8 hour): + | MBC test growth score ([1]; 80% preservative, 24 hour): + | MBC test growth score ([1]; 80% preservative, 48 hour): + | MBC test growth score ([1]; 80% preservative, 72 hour): + | MBC test growth score ([1]; 90% preservative, 8 hour): + | MBC test growth score ([1]; 90% preservative, 24 hour): + | MBC test growth score ([1]; 90% preservative, 48 hour): + | MBC test growth score ([1]; 90% preservative, 72 hour): + | MBC test growth score ([1]; 100% preservative, 8 hour): + | MBC test growth score ([1]; 100% preservative, 24 hour): + | MBC test growth score ([1]; 100% preservative, 48 hour): + | MBC test growth score ([1]; 100% preservative, 72 hour): + | total kill at % preservative (MBC) ([1]; at 72 hours, listed as Na Azide): No kill @ 100% | MBC test growth score ([2]; 10% preservative, 8 hour): + | MBC test growth score ([2]; 10% preservative, 24 hour): + | MBC test growth score ([2]; 10% preservative, 48 hour): + | MBC test growth score ([2]; 10% preservative, 72 hour): + | MBC test growth score ([2]; 10% preservative, 7 day): + | MBC test growth score ([2]; 10% preservative, 14 day): + | MBC test growth score ([2]; 20% preservative, 8 hour): + | MBC test growth score ([2]; 20% preservative, 24 hour): + | MBC test growth score ([2]; 20% preservative, 48 hour): + | MBC test growth score ([2]; 20% preservative, 72 hour): + | MBC test growth score ([2]; 20% preservative, 7 day): + | MBC test growth score ([2]; 20% preservative, 14 day): + | MBC test growth score ([2]; 30% preservative, 8 hour): + | MBC test growth score ([2]; 30% preservative, 24 hour): + | MBC test growth score ([2]; 30% preservative, 48 hour): + | MBC test growth score ([2]; 30% preservative, 72 hour): + | MBC test growth score ([2]; 30% preservative, 7 day): + | MBC test growth score ([2]; 30% preservative, 14 day): + | MBC test growth score ([2]; 40% preservative, 8 hour): + | MBC test growth score ([2]; 40% preservative, 24 hour): + | MBC test growth score ([2]; 40% preservative, 48 hour): + | MBC test growth score ([2]; 40% preservative, 72 hour): + | MBC test growth score ([2]; 40% preservative, 7 day): + | MBC test growth score ([2]; 40% preservative, 14 day): + | MBC test growth score ([2]; 50% preservative, 8 hour): + | MBC test growth score ([2]; 50% preservative, 24 hour): + | MBC test growth score ([2]; 50% preservative, 48 hour): + | MBC test growth score ([2]; 50% preservative, 72 hour): + | MBC test growth score ([2]; 50% preservative, 7 day): + | MBC test growth score ([2]; 50% preservative, 14 day): + | MBC test growth score ([2]; 60% preservative, 8 hour): + | MBC test growth score ([2]; 60% preservative, 24 hour): + | MBC test growth score ([2]; 60% preservative, 48 hour): + | MBC test growth score ([2]; 60% preservative, 72 hour): + | MBC test growth score ([2]; 60% preservative, 7 day): + | MBC test growth score ([2]; 60% preservative, 14 day): + | MBC test growth score ([2]; 70% preservative, 8 hour): + | MBC test growth score ([2]; 70% preservative, 24 hour): + | MBC test growth score ([2]; 70% preservative, 48 hour): + | MBC test growth score ([2]; 70% preservative, 72 hour): + | MBC test growth score ([2]; 70% preservative, 7 day): + | MBC test growth score ([2]; 70% preservative, 14 day): + | MBC test growth score ([2]; 80% preservative, 8 hour): + | MBC test growth score ([2]; 80% preservative, 24 hour): + | MBC test growth score ([2]; 80% preservative, 48 hour): + | MBC test growth score ([2]; 80% preservative, 72 hour): + | MBC test growth score ([2]; 80% preservative, 7 day): + | MBC test growth score ([2]; 80% preservative, 14 day): + | MBC test growth score ([2]; 90% preservative, 8 hour): + | MBC test growth score ([2]; 90% preservative, 24 hour): + | MBC test growth score ([2]; 90% preservative, 48 hour): + | MBC test growth score ([2]; 90% preservative, 72 hour): + | MBC test growth score ([2]; 90% preservative, 7 day): + | MBC test growth score ([2]; 90% preservative, 14 day): + | MBC test growth score ([2]; 100% preservative, 8 hour): + | MBC test growth score ([2]; 100% preservative, 24 hour): + | MBC test growth score ([2]; 100% preservative, 48 hour): + | MBC test growth score ([2]; 100% preservative, 72 hour): + | MBC test growth score ([2]; 100% preservative, 7 day): + | MBC test growth score ([2]; 100% preservative, 14 day): + | total kill at % preservative (MBC) ([2]; at 14 days, listed as Na Azide): No kill @ 100%
